These results are taken from ChEMBL document CHEMBL3991601, “The target landscape of clinical kinase drugs” (Science, 2017).

The source made the active and inactive calls. Cut-off read from the data, not from the text of the source, for most assays here: actives have a measured Kd and inactives only a lower limit. Bounds are passed on as bounds.

Experiment [1] has as its target Serine/threonine-protein kinase N2 (Homo sapiens, UniProt Q16513).
For experiment [2], the target named is Casein kinase II subunit alpha' (Homo sapiens, UniProt P19784).
Casein kinase II subunit alpha', sequence (P19784 whole entry): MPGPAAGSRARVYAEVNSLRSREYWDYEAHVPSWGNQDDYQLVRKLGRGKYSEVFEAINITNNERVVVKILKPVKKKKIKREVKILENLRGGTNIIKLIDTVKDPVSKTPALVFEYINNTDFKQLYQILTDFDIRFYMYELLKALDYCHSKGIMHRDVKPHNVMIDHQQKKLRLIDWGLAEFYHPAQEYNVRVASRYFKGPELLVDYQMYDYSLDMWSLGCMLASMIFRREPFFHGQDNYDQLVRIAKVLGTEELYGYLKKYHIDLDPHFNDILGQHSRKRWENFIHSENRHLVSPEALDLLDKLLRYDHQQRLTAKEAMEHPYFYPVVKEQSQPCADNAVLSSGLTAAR
Experiment [3] concerns the target T1, Peroxisomal acyl-coenzyme A oxidase 1 (Homo sapiens, UniProt Q15067).
T1 sequence (Q15067 whole entry): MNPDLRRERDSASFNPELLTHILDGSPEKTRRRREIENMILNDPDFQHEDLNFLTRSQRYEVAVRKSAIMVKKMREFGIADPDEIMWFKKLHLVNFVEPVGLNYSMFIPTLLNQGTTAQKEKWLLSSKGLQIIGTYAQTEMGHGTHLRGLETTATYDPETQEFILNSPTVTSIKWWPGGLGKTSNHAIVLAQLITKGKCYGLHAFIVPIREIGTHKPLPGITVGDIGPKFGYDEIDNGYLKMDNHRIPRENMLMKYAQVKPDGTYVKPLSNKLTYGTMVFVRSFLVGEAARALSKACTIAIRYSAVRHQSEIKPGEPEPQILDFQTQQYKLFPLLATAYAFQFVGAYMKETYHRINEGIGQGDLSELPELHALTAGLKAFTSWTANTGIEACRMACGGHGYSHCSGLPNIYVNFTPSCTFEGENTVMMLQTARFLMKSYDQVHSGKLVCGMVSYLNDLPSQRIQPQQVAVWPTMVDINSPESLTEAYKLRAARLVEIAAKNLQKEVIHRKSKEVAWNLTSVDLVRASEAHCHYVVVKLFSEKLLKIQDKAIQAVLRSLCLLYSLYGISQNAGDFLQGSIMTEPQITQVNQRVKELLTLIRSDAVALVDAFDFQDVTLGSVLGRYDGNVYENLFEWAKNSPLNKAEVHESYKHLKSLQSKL

In experiment [4] the target is T2, Dual specificity mitogen-activated protein kinase kinase 3 (Homo sapiens, UniProt P46734).
T2 sequence (P46734 whole entry): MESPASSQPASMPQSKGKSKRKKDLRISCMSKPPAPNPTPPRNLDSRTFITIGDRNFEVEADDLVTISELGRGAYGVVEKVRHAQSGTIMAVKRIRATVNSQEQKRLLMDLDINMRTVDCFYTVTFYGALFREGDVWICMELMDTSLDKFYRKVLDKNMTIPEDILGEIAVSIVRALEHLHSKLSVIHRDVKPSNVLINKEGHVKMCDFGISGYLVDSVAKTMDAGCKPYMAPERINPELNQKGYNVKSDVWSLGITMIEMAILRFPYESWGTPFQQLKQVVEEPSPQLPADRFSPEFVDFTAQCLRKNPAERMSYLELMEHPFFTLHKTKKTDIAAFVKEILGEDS

The target of experiment [5] is Tyrosine-protein kinase FRK (Homo sapiens, UniProt P42685).
Tyrosine-protein kinase FRK, sequence (P42685 whole entry): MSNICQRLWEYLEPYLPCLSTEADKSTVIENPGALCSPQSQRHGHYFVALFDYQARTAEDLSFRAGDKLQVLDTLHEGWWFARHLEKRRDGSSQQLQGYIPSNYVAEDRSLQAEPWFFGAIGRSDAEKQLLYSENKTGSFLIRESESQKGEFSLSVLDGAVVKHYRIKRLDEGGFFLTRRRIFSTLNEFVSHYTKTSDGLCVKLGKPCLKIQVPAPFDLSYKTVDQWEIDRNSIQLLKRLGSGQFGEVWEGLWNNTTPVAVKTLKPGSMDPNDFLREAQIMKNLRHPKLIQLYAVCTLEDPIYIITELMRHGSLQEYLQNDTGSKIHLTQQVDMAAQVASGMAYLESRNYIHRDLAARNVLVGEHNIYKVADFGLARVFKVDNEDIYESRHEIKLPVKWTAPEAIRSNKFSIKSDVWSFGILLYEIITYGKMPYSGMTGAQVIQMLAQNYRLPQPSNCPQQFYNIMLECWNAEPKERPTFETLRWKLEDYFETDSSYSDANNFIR
In experiment [6] the target is Mitogen-activated protein kinase kinase kinase 4 (Homo sapiens, UniProt Q9Y6R4).
Experiment [7] addresses Citron Rho-interacting kinase (Homo sapiens, UniProt O14578).
Experiment [8] concerns the target T3, Phenylalanine--tRNA ligase beta subunit (Homo sapiens, UniProt Q9NSD9).
T3 sequence (Q9NSD9 whole entry): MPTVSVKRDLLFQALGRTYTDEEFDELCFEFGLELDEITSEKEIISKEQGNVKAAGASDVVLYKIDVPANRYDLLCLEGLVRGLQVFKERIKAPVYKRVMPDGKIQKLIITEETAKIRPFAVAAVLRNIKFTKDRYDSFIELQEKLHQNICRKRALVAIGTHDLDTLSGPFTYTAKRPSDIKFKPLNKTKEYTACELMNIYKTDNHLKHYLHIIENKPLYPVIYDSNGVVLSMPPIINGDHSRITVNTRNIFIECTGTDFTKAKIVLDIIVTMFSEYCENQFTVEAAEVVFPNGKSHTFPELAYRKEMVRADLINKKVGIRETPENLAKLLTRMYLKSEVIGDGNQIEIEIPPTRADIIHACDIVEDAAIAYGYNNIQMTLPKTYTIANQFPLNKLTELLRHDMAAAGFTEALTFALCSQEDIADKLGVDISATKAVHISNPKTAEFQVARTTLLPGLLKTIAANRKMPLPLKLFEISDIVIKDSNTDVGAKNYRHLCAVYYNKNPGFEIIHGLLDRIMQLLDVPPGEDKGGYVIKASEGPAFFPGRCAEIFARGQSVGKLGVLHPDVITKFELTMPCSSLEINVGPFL

The target in experiment [9] is T4, EKC/KEOPS complex subunit TP53RK (Homo sapiens, UniProt Q96S44).
T4 sequence (Q96S44 whole entry): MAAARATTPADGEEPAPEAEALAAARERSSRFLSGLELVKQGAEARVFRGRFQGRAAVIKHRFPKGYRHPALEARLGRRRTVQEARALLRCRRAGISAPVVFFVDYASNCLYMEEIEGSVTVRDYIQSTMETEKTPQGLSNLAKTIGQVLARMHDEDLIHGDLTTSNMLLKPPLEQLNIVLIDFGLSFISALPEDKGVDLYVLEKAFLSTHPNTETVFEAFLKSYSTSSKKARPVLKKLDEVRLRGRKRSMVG

Experiment [10] concerns the target Calcium/calmodulin-dependent protein kinase kinase 2 (Homo sapiens, UniProt Q96RR4).
Experiment [11] concerns the target Mitogen-activated protein kinase 9 (Homo sapiens, UniProt P45984).
Note: in the data inactive means no Kd found up to 30 µM.

Serine/threonine-protein kinase N2, sequence (Q16513 whole entry): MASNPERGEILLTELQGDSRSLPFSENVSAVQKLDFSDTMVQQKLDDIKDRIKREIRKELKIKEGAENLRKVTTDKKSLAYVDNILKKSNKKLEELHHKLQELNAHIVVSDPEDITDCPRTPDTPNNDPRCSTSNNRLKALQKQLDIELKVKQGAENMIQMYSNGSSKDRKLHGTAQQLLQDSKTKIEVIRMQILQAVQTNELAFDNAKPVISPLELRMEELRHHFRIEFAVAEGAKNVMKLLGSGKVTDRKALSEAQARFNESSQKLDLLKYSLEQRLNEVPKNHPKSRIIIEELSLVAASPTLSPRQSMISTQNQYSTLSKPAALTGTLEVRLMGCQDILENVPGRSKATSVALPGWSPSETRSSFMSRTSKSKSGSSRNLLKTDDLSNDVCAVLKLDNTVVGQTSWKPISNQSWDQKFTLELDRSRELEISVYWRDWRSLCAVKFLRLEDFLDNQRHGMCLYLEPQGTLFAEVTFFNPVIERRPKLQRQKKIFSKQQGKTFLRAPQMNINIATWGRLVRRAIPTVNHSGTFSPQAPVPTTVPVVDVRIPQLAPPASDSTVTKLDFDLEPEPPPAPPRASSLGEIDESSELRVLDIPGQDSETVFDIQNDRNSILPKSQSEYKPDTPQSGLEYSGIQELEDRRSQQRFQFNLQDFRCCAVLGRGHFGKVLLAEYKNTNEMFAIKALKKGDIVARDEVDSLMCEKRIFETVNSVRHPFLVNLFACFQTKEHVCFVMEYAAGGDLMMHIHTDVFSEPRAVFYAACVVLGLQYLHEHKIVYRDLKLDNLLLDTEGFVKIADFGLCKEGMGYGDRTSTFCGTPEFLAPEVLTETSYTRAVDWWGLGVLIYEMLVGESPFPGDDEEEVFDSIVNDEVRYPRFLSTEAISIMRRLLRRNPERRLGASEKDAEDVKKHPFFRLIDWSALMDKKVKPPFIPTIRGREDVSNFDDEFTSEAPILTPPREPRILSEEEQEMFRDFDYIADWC
Mitogen-activated protein kinase 9, sequence (P45984 whole entry): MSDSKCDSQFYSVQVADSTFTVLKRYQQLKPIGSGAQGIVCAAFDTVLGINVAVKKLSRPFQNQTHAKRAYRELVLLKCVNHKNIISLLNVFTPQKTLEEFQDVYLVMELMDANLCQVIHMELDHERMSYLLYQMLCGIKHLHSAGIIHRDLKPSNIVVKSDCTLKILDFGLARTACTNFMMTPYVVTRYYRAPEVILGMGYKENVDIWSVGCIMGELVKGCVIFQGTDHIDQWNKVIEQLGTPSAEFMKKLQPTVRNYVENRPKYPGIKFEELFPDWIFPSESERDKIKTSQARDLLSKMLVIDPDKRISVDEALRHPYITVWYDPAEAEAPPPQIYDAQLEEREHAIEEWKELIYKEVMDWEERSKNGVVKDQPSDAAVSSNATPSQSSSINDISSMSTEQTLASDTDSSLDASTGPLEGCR
Citron Rho-interacting kinase, sequence (O14578 whole entry): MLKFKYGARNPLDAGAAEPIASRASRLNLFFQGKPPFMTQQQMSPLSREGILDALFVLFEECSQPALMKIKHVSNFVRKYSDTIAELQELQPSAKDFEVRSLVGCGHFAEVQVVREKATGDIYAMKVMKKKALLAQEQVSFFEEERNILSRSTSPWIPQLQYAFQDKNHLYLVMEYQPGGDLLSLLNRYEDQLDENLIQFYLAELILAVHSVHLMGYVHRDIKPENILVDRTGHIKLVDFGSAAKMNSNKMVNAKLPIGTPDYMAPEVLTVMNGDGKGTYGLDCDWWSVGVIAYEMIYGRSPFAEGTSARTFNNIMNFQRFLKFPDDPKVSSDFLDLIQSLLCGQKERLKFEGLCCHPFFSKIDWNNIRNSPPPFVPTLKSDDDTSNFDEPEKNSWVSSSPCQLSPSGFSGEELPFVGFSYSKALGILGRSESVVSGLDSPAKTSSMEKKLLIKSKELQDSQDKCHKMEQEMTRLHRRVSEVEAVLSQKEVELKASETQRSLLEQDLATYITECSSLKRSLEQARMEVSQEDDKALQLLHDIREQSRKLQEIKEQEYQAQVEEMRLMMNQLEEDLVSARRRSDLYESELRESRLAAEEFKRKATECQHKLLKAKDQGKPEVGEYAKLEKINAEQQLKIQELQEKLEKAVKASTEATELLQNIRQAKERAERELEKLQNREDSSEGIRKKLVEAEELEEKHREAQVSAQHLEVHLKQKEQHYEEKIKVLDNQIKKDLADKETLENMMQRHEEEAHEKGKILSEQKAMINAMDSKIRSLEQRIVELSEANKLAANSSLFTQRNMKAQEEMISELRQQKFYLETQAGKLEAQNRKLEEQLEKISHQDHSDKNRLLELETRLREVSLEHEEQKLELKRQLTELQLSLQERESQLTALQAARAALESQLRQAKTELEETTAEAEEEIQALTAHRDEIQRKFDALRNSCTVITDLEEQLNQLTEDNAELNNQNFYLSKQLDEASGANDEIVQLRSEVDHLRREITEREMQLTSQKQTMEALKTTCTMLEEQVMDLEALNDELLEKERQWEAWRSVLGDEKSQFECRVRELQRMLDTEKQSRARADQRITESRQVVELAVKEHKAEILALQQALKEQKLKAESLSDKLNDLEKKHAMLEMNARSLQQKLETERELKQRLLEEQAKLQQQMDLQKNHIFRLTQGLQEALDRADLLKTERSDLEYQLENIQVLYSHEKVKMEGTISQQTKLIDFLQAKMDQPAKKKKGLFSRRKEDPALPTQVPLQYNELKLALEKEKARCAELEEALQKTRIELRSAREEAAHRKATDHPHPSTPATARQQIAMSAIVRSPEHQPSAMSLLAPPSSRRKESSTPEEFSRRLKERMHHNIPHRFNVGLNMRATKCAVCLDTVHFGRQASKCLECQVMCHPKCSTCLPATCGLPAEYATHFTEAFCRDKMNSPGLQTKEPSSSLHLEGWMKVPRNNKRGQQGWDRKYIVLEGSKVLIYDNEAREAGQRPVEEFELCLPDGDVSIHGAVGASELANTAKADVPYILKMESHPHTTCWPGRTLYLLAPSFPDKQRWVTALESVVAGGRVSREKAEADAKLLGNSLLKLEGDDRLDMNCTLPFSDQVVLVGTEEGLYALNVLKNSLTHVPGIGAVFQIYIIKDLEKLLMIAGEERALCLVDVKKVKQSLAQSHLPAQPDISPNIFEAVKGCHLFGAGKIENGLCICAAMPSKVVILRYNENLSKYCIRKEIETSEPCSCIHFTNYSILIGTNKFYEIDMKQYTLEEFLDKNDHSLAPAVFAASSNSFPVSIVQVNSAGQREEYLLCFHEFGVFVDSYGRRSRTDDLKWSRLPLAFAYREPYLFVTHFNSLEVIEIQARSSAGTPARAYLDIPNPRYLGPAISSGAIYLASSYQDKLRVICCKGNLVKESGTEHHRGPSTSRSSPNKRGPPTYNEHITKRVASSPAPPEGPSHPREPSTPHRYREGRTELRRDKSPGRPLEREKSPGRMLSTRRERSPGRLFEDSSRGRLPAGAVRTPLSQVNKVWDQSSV
Calcium/calmodulin-dependent protein kinase kinase 2, sequence (Q96RR4 whole entry): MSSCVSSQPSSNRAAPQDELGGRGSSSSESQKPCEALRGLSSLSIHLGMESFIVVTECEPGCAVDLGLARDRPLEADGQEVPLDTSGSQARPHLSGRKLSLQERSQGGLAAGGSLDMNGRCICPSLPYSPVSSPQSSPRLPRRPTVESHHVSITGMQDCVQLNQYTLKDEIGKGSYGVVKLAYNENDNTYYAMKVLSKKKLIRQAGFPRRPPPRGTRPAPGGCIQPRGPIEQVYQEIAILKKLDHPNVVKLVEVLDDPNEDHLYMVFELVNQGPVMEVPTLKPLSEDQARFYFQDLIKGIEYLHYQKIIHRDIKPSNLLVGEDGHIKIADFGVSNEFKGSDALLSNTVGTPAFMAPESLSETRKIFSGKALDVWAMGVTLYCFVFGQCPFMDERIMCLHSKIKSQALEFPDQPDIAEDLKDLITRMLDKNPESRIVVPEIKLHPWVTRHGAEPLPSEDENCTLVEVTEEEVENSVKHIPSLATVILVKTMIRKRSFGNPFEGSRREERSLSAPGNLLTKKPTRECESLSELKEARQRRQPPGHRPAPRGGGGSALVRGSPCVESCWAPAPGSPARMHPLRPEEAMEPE

Regarding `CNC(=O)c1cc(Oc2ccc(NC(=O)Nc3ccc(Cl)c(C(F)(F)F)c3)c(F)c2)ccn1` [REGORAFENIB], the Kd in experiment [1], in experiment [2], in experiment [3], in experiment [4], in experiment [5] and in experiment [6] was > 30 µM (inactive) each time. The Kd in [7], in [8], in [9], in experiment [10] and in experiment [11] was > 30 µM (inactive) throughout.
For the molecule `CCN1CCN(Cc2ccc(-c3cc4c(N[C@H](C)c5ccccc5)ncnc4[nH]3)cc2)CC1` [AEE-788], the Kd in [1] was > 30 µM (inactive); in [2], > 30 µM (inactive); in experiment [3], > 30 µM (inactive); in [4], > 30 µM (inactive); in [5] it was > 30 µM (inactive); in experiment [6] it was 2.19 µM (active). In addition, the Kd in experiment [7], in [8], in [9], in experiment [10] and in experiment [11] was > 30 µM (inactive) in each case.
Regarding `Cc1ccc(NC(=O)c2ccc(CN3CC[C@H](N(C)C)C3)c(C(F)(F)F)c2)cc1Nc1nccc(-c2cncnc2)n1` [BAFETINIB], the Kd in experiment [1] was > 30 µM (inactive); in [2], > 30 µM (inactive); in experiment [3] it was > 30 µM (inactive); in experiment [4], > 30 µM (inactive); in [5], 0.428 µM (active); in experiment [6], > 30 µM (inactive). Further, the Kd in [7], in experiment [8], in [9], in [10] and in [11] was > 30 µM (inactive) each time.
As for `CN(C)C(=O)c1cc2cnc(Nc3ccc(N4CCNCC4)cn3)nc2n1C1CCCC1` [RIBOCICLIB], the Kd in [1], in [2], in experiment [3], in experiment [4], in experiment [5] and in experiment [6] was > 30 µM (inactive) throughout. Moreover, the Kd in experiment [7], in experiment [8], in experiment [9], in [10] and in experiment [11] was > 30 µM (inactive) each time.
For `Cn1cc(-c2ccc3nnc(C(F)(F)c4ccc5ncccc5c4)n3n2)cn1` [JNJ-38877605], the Kd in experiment [1], in [2], in experiment [3], in experiment [4], in [5] and in experiment [6] was > 30 µM (inactive) each time. In addition, the Kd in experiment [7], in [8], in [9], in experiment [10] and in experiment [11] was > 30 µM (inactive) each time.
On to `CC[C@H](Nc1ncnc2[nH]cnc12)c1nc2cccc(F)c2c(=O)n1-c1ccccc1` [IDELALISIB], for which the Kd in experiment [1], in [2], in [3], in experiment [4], in experiment [5] and in experiment [6] was > 30 µM (inactive) each time. Besides, the Kd in experiment [7], in [8], in [9], in [10] and in experiment [11] was > 30 µM (inactive) each time.
In the case of `CN1CC[C@@H](c2c(O)cc(O)c3c(=O)cc(-c4ccccc4Cl)oc23)[C@@H]1CO`, the Kd in [1], in [2], in [3], in experiment [4], in experiment [5] and in experiment [6] was > 30 µM (inactive) each time. In addition, the Kd in [7], in [8], in experiment [9], in experiment [10] and in [11] was > 30 µM (inactive) throughout.
Consider `CN1N=C(N)c2cn([C@@H]3O[C@H](COP(=O)(O)O)[C@@H](O)[C@H]3O)c3ncnc1c23` [TRICIRIBINE PHOSPHATE], for which the Kd in [1], in experiment [2], in [3], in experiment [4], in experiment [5] and in experiment [6] was > 30 µM (inactive) in each case. For the same molecule, the Kd in experiment [7], in [8], in [9], in experiment [10] and in experiment [11] was > 30 µM (inactive) each time.
With `O=C(c1ccc(F)c(F)c1Nc1ccc(I)cc1F)N1CC(O)([C@@H]2CCCCN2)C1` [COBIMETINIB], the Kd in [1], in [2], in experiment [3], in experiment [4], in experiment [5] and in [6] was > 30 µM (inactive) in each case. Besides, the Kd in experiment [7], in experiment [8], in experiment [9], in experiment [10] and in [11] was > 30 µM (inactive) in each case.
In the case of `Cc1cc(-c2cc(O)ccc2Cl)cc2nnc(Nc3ccc(OCCN4CCCC4)cc3)nc12`, the Kd in [1] is > 30 µM (inactive); in experiment [2], > 30 µM (inactive); in [3], > 30 µM (inactive); in experiment [4], > 30 µM (inactive); in experiment [5], 0.001 µM (active); in experiment [6], > 30 µM (inactive). The Kd in experiment [7] was 0.003 µM (active); in experiment [8], > 30 µM (inactive); in experiment [9], > 30 µM (inactive); in experiment [10], > 30 µM (inactive); in [11], > 30 µM (inactive).

By Kd is commonly meant the constant that tells how readily two partners part at equilibrium.
